In PubChem BioAssay AID588725 (The Scripps Research Institute Molecular Screening Center, 2011):
Calls of active or inactive are those of the source.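 The calls were made as follows: active = versus DMSO control, mean enzyme activity at or below 80% or at or above 120%; inactive = between 80% and 120% mean enzyme activity.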

What was measured:
Assay in all cases: modulation of a 48-kinase panel, late-stage follow-up, selectivity assay for KLF5 inhibitor project, biochemical, 33P-ATP radiometric, Reaction Biology, powder sample (AID 588725)
[1] = biological target: Protein kinase C gamma type (Homo sapiens) (UniProt P05129); details: 33P-ATP radiometric activity, PKCg, at 10 µM
PKCepsilon = details: 33P-ATP radiometric activity, at 10 µM
[2] = biological target: Inhibitor of nuclear factor kappa-B kinase subunit beta (Homo sapiens) (UniProt O14920); details: 33P-ATP radiometric activity, IKKb, at 10 µM
Sequence of Inhibitor of nuclear factor kappa-B kinase subunit beta (Homo sapiens) (O14920 whole entry, looked up): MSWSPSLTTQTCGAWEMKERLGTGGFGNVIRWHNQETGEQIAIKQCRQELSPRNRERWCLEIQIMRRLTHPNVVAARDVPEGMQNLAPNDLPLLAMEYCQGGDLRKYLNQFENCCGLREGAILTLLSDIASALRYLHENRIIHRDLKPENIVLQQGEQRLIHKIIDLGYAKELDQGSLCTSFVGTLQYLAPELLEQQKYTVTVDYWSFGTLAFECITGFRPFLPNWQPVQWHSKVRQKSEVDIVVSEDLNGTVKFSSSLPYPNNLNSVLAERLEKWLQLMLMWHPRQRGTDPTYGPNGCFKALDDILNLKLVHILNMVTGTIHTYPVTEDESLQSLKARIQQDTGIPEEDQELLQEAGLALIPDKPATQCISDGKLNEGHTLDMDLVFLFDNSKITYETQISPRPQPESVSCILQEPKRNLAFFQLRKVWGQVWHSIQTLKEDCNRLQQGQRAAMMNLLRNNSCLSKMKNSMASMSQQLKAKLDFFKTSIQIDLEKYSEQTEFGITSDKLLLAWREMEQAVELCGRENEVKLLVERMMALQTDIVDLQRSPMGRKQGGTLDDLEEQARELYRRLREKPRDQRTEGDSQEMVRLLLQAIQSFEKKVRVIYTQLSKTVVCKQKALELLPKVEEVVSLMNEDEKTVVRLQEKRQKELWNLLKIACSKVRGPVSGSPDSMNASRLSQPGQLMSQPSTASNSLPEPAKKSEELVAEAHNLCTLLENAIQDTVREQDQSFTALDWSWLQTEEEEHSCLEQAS

MKK6 = details: 33P-ATP radiometric activity, at 10 µM
[3] = biological target: Receptor tyrosine-protein kinase erbB-2 (Homo sapiens) (UniProt P04626); details: 33P-ATP radiometric activity, ERBB2, at 10 µM
[4] = biological target: Glycogen synthase kinase-3 alpha (Homo sapiens) (UniProt P49840); details: 33P-ATP radiometric activity, GSK3a, at 10 µM
P38b = details: 33P-ATP radiometric activity, at 10 µM
[5] = biological target: Inhibitor of nuclear factor kappa-B kinase subunit alpha (Homo sapiens) (UniProt O15111); details: 33P-ATP radiometric activity, IKKa, at 10 µM
PKCeta = details: 33P-ATP radiometric activity, at 10 µM
[6] = biological target: Serine/threonine-protein kinase B-raf (Homo sapiens) (UniProt P15056); details: 33P-ATP radiometric activity, BRAF, at 10 µM
[7] = biological target: RAC-gamma serine/threonine-protein kinase (Homo sapiens) (UniProt Q9Y243); details: 33P-ATP radiometric activity, AKT3, at 10 µM
Sequence of RAC-gamma serine/threonine-protein kinase (Homo sapiens) (Q9Y243 whole entry, looked up): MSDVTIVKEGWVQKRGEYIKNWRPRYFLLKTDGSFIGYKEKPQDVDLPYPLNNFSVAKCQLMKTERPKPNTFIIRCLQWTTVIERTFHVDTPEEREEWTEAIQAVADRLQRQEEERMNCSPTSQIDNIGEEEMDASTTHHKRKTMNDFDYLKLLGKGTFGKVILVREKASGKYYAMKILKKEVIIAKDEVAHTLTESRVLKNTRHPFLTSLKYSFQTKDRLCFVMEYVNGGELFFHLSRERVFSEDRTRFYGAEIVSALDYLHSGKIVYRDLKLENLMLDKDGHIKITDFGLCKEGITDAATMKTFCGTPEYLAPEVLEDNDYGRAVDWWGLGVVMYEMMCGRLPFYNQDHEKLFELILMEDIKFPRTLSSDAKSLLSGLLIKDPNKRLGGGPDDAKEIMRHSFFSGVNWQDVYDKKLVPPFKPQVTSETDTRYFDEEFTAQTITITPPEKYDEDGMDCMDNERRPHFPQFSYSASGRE

p70S6Kb = details: 33P-ATP radiometric activity, at 10 µM
CDK5/p35 = details: 33P-ATP radiometric activity, at 10 µM
PKCb1 = details: 33P-ATP radiometric activity, at 10 µM
MEKK2 = details: 33P-ATP radiometric activity, at 10 µM
MEKK3 = details: 33P-ATP radiometric activity, at 10 µM
[8] = biological target: Serine/threonine-protein kinase D1 (Homo sapiens) (UniProt Q15139); details: 33P-ATP radiometric activity, PKCmu, at 10 µM
MLK3 = details: 33P-ATP radiometric activity, at 10 µM
PKCb2 = details: 33P-ATP radiometric activity, at 10 µM
[9] = biological target: Dual specificity mitogen-activated protein kinase kinase 1 (Homo sapiens) (UniProt Q02750); details: 33P-ATP radiometric activity, MEK1, at 10 µM
Sequence of Dual specificity mitogen-activated protein kinase kinase 1 (Homo sapiens) (Q02750 whole entry, looked up): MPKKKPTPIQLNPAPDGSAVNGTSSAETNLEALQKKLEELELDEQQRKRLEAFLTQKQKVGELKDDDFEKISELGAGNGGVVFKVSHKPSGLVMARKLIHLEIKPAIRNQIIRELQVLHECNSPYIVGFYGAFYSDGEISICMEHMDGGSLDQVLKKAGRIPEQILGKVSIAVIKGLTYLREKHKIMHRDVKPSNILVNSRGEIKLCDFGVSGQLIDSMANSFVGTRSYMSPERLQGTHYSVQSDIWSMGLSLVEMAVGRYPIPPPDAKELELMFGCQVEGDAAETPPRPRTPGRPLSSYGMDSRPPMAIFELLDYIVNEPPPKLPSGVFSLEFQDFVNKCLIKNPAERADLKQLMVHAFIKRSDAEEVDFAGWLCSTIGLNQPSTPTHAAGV

[10] = biological target: Mitogen-activated protein kinase 9 (Homo sapiens) (UniProt P45984); details: 33P-ATP radiometric activity, JNK2, at 10 µM
PKCa = details: 33P-ATP radiometric activity, at 10 µM
[11] = biological target: Serine/threonine-protein kinase D3 (Homo sapiens) (UniProt O94806); details: 33P-ATP radiometric activity, PKCnu, at 10 µM
MEK2 = details: 33P-ATP radiometric activity, at 10 µM
JAK1 = details: 33P-ATP radiometric activity, at 10 µM
[12] = biological target: Mitogen-activated protein kinase 12 (Homo sapiens) (UniProt P53778); details: 33P-ATP radiometric activity, P38g, at 10 µM
P38d = details: 33P-ATP radiometric activity, at 10 µM
CDK5/p25 = details: 33P-ATP radiometric activity, at 10 µM
[13] = biological target: Protein kinase C zeta type (Homo sapiens) (UniProt Q05513); details: 33P-ATP radiometric activity, PKCzeta, at 10 µM
JNK1 = details: 33P-ATP radiometric activity, at 10 µM
[14] = biological target: Mitogen-activated protein kinase 3 (Homo sapiens) (UniProt P27361); details: 33P-ATP radiometric activity, ERK1, at 10 µM
[15] = biological target: Receptor tyrosine-protein kinase erbB-4 (Homo sapiens) (UniProt Q15303); details: 33P-ATP radiometric activity, ERBB4, at 10 µM
[16] = biological target: Epidermal growth factor receptor (Homo sapiens) (UniProt P00533); details: 33P-ATP radiometric activity, EGFR, at 10 µM
[17] = biological target: Protein kinase C delta type (Homo sapiens) (UniProt Q05655); details: 33P-ATP radiometric activity, PKCd, at 10 µM
[18] = biological target: Ribosomal protein S6 kinase beta-1 (Homo sapiens) (UniProt P23443); details: 33P-ATP radiometric activity, p70S6K, at 10 µM
Sequence of Ribosomal protein S6 kinase beta-1 (Homo sapiens) (P23443 whole entry, looked up): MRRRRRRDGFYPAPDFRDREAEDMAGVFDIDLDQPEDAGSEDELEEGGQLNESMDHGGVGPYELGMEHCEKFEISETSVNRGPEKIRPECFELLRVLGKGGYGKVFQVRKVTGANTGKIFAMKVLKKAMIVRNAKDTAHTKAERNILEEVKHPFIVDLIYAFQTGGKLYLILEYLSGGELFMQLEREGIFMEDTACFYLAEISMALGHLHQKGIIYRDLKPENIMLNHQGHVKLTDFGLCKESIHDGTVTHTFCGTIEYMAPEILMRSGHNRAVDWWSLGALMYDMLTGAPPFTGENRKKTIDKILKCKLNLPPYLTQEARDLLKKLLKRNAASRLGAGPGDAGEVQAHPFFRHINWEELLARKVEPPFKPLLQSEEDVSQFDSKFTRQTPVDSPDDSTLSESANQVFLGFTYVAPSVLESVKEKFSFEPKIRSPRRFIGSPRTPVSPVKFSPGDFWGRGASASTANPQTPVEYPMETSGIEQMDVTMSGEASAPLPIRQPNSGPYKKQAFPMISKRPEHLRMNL

[19] = biological target: Glycogen synthase kinase-3 beta (Homo sapiens) (UniProt P49841); details: 33P-ATP radiometric activity, GSK3b, at 10 µM
[20] = biological target: Protein kinase C iota type (Homo sapiens) (UniProt P41743); details: 33P-ATP radiometric activity, PKCiota, at 10 µM
[21] = biological target: Mitogen-activated protein kinase 14 (Homo sapiens) (UniProt Q16539); details: 33P-ATP radiometric activity, P38a, at 10 µM
[22] = biological target: Cyclin-dependent kinase 2 (Homo sapiens) (UniProt P24941); details: 33P-ATP radiometric activity, at 10 µM
Aurora A = details: 33P-ATP radiometric activity, at 10 µM
[23] = biological target: RAC-beta serine/threonine-protein kinase (Homo sapiens) (UniProt P31751); details: 33P-ATP radiometric activity, AKT2, at 10 µM
Sequence of RAC-beta serine/threonine-protein kinase (Homo sapiens) (P31751 whole entry, looked up): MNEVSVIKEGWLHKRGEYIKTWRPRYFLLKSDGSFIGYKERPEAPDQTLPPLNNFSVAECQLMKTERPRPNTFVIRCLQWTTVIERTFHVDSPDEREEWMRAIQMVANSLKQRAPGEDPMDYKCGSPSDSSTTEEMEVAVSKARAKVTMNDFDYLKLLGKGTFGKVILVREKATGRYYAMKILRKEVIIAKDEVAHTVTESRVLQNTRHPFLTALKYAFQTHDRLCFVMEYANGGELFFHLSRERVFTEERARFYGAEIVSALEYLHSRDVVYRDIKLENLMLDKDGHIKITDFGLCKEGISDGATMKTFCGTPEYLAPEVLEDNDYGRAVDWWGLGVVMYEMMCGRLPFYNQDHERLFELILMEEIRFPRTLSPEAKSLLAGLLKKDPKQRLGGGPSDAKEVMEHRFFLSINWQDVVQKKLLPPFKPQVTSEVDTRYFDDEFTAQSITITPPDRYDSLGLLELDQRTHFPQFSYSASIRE

[24] = biological target: Cyclin-dependent kinase 1 (Homo sapiens) (UniProt P06493); details: 33P-ATP radiometric activity, at 10 µM
Sequence of Cyclin-dependent kinase 1 (Homo sapiens) (P06493 whole entry, looked up): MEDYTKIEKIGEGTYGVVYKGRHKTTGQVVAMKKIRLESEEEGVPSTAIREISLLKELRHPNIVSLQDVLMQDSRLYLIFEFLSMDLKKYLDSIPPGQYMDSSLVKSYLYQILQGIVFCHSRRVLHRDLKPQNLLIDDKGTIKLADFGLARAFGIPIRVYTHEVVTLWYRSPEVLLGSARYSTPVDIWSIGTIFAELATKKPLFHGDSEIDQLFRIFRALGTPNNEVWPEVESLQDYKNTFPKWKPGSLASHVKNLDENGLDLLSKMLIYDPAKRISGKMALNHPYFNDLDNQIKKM

[25] = biological target: Protein kinase C theta type (Homo sapiens) (UniProt Q04759); details: 33P-ATP radiometric activity, PKCtheta, at 10 µM
Sequence of Protein kinase C theta type (Homo sapiens) (Q04759 whole entry, looked up): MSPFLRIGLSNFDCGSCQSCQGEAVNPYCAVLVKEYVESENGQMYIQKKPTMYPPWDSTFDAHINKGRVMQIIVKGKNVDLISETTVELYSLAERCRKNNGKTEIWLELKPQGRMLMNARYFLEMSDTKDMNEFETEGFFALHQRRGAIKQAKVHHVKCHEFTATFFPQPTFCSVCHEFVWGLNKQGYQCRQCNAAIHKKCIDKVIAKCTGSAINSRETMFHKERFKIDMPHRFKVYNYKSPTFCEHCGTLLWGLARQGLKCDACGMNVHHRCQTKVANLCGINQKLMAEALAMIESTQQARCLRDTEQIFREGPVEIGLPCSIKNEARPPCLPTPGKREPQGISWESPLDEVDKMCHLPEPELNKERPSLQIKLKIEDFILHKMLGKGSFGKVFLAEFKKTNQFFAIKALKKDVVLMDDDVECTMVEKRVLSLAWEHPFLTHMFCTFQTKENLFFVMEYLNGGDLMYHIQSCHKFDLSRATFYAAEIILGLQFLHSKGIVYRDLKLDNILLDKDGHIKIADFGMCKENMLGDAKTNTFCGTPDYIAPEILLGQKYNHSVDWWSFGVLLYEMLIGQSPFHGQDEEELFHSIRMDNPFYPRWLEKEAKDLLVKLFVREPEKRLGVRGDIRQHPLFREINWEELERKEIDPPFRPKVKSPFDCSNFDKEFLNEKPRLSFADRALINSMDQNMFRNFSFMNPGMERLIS

[26] = biological target: Mitogen-activated protein kinase 1 (Homo sapiens) (UniProt P28482); details: 33P-ATP radiometric activity, ERK2, at 10 µM
Sequence of Mitogen-activated protein kinase 1 (Homo sapiens) (P28482 whole entry, looked up): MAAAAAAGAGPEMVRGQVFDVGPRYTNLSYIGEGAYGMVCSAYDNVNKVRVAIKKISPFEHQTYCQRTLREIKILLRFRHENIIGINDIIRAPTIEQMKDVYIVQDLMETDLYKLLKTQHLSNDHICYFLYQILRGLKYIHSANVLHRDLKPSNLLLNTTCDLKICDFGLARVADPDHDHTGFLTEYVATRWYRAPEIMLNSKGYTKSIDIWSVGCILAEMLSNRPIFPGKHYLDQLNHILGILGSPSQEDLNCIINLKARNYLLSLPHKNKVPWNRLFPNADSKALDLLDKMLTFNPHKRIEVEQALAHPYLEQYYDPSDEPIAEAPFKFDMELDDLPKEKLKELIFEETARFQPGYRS

[27] = biological target: Mitogen-activated protein kinase 10 (Homo sapiens) (UniProt P53779); details: 33P-ATP radiometric activity, JNK3, at 10 µM
Sequence of Mitogen-activated protein kinase 10 (Homo sapiens) (P53779 whole entry, looked up): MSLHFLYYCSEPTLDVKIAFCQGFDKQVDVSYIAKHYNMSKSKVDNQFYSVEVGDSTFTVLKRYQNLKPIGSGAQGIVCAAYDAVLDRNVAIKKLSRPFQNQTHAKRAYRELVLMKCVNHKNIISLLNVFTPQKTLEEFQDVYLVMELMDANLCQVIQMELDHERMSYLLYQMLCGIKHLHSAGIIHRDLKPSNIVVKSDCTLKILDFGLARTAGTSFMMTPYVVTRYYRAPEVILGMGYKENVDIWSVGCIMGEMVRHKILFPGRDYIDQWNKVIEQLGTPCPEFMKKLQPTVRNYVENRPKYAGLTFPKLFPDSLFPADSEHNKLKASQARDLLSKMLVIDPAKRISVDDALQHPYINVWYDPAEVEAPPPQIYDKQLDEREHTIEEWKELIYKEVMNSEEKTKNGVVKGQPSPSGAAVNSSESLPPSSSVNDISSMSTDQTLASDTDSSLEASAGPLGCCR

[28] = biological target: RAC-alpha serine/threonine-protein kinase (Homo sapiens) (UniProt P31749); details: 33P-ATP radiometric activity, AKT1, at 10 µM
Sequence of RAC-alpha serine/threonine-protein kinase (Homo sapiens) (P31749 whole entry, looked up): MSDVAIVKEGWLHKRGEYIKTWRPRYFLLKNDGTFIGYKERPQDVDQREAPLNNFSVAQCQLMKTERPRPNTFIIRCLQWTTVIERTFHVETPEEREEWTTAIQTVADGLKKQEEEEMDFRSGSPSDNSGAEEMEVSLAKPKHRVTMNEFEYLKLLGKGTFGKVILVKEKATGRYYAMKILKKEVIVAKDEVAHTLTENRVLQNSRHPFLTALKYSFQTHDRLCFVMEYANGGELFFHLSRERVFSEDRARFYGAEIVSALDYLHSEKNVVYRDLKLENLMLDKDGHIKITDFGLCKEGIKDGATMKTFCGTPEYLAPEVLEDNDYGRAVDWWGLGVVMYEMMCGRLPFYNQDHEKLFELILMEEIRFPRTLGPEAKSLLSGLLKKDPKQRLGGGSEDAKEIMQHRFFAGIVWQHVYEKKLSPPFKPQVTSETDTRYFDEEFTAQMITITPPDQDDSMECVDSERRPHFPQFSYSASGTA

Measured: enzyme activity

CN(C(=O)CNC(=O)/C=C/c1cccc(Cl)c1)C1CCS(=O)(=O)CC1
inactive: [1] 100% | PKCepsilon 100% | [2] 107% | MKK6 103% | [3] 104% | [4] 104% | P38b 95.7% | [5] 97.3% | PKCeta 107% | [6] 100% | [7] 98.7% | p70S6Kb 100% | CDK5/p35 106% | PKCb1 98.5% | MEKK2 102% | MEKK3 99.6% | [8] 106% | MLK3 101% | PKCb2 102% | [9] 108% | [10] 108% | PKCa 99.6% | [11] 105% | MEK2 105% | JAK1 91.3% | [12] 105% | P38d 98.3% | CDK5/p25 108% | [13] 102% | JNK1 101% | [14] 103% | [15] 97% | [16] 98% | [17] 104% | [18] 104% | [19] 112% | [20] 103% | [21] 96.3% | [22]; CDK2/cyclin A 95.5% | [22]; CDK2/cyclin E 113% | Aurora A 95.4% | [23] 107% | [24]; CDK1/cyclin A 106% | [24]; CDK1/cyclin B 103% | [25] 98.8% | [26] 101% | [27] 102% | [28] 104%
